From patent US7932213B2, “Small molecule printing” (President and Fellows of Harvard College, priority 1999, dated 2011) come the findings set out here.

For orientation: Kd means the free concentration of one partner at which half of the binding sites on the other are occupied at equilibrium, for simple one-to-one binding.

Series [1] is described as follows: Precipitation of sample in SPR binding buffer (4% DMF/PBST). The note with it: at 125 μM. In kind it is physicochemical. How it is done: After the prioritization step, compounds 5, 6 and 7 were resynthesized, purified and subjected to KD determination. Samples were injected over a range of concentrations (e.g. 0.1-125 μM). The compound was prepared as a 10 mM stock solution in DMF. Serial dilutions of this stock were made and then added to the heated PBST (˜70° C., 1 min). In this analysis, a 200 μL final volume was prepared by addition of 8 μL of small molecule DMF solution into 192 μL of a heated PBST. The final concentration ranged between 0.015 μM and 125 μM. 5 and 6 precipitated at 125 μM in 4% DMF/PBST. Samples were injected in the alternation with blanks. “Flow cell 2 with 1 as a reference” was selected and each sample was analyzed in triplicate. For each experiment, a calibration for bulk differences between flow cells due to the high refractive index of DMF was performed by injecting blank samples containing a range of DMF concentrations (1, 2, 3, 3.5, 4, 4.5, 5%) in PBST under conditions otherwise identical to those used for samples of compounds 5, 6 and 7.

Series [2] has as its target calmodulin (Homo sapiens, UniProt P0DP23). Nature of the series: Surface plasmon resonance (BIAcore) binding to immobilized calmodulin. To be noted: SPR, steady state affinity analysis; resynthesized, purified compound; PBST containing 4% DMF. How it is done: Cy5 detection was chosen to avoid conflict with compound autofluorescence in the Cy3 channel. Positive hits from the microarray were retested for their ability to bind to the immobilized protein using surface plasmon resonance (SPR) spectroscopy (BIAcore). This process enables a rapid initial prioritization of positives prior to resynthesis, The initial secondary SPR screening was performed using compound (2 μL of a 1 mM DMF stock) directly from the original stock solutions used for microarray production. […] For this set, compound 5, 6, and 7 were resynthesized, purified, and their KDs with calmodulin determined by SPR using steady state affinity analysis.
Tetracycle 7: ^1H NMR (500 MHz, CDCl3) δ 6.95 (d, J=8.5 Hz, 2H), 6.87 (m, 4H), 6.71 (d, J=8.0 Hz, 2H), 6.55 (q, J=1.5 Hz, 1H), 6.04 (m, 1H), 4.93 (s, 1H), 4.68 (s, 1H), 3.84 (t, J=5.0 Hz, 4H), 3.34 (dd, J=17.0, 2.5 Hz, 1H), 3.28 (m, 2H), 3.16 (t, J=5.0 Hz, 4H), 3.02 (m, 1H), 2.94 (dd, J=15.0, 7.0 Hz, 1H), 2.54 (dd, J=17.5, 8.5 Hz, 1H), 2.36 (ddd J=15.5, 6.5, 3.5 Hz, 1H), 2.05 (d, J=1.5 Hz, 3H); ^13C NMR (125 MHz, CDCl3) δ 186.4, 186.1, 178.8, 177.1, 154.4, 151.2, 146.0, 143.4, 140.8, 139.5, 132.6, 132.5, 128.2, 127.1, 123.1, 122.7, 115.6, 115.5, 66.7, 48.7, 43.9, 42.6, 39.1, 32.4, 24.5, 24.1, 16.1; FT-IR (thin film) 3411, 2961, 2907, 2852, 1699, 1690, 1649, 1611, 1513, 1441, 1381, 1261, 1234, 1173, 1113, 922, 818, 730 cm^−1; HRMS (TOF ES) calcd for C33H31N2O6, 551.2182 m/z (M+H)^+; observed 551.2186 (0.8 ppm error). BIAcore Experiments Immobilization. In all experiments, calmodulin (CaM) was immobilized on a carboxymethylated dextran-coated sensor chip (CM5, Biacore AB, Uppsala, Sweden) at 25° C. For protein immobilization, ‘specific flow rate’ was selected and the protein of interest was immobilized in flow cells 2 and 4. On Biacore 3000, the sensor chip was activated (7 min in flow cells 2 and 4) by addition of 0.2 M N-ethyl-N'-(3-dimethylaminopropyl) carbodiimide hydrochloride (EDC) and 0.05 M N-hydroxysuccinimide (NHS) at 20 μL/min. […]

`Cc1c(-c2cc(N3C(=O)[C@@H]4C[C@@H]5C(=CC[C@@H]6C(=O)N(c7ccc(/N=N/c8ccc(N(C)C)cc8)cc7)C(=O)[C@@H]65)[C@H](c5cc(Cl)ccc5O)[C@]4(C)C3=O)n(C)n2)sc2ccc(Cl)cc12` [Compound 6]: the “precipitation in 4% DMF/PBST” value in series [1] is given as “precipitated”. The same compound registered a dissociation constant (Kd) in series [2] of 1.06 ± 0.09 µM.
As to `CN(C)c1ccc(/N=N/c2ccc(N3C(=O)[C@H]4[C@H](CC=C5[C@H]4C[C@H]4C(=O)N(c6ccc(F)c(Cl)c6)C(=O)[C@@]4(C)[C@H]5c4cc(Cl)ccc4O)C3=O)cc2)cc1` [Compound 5], the “precipitation in 4% DMF/PBST” value in series [1] is listed as “precipitated”. In series [2], this compound returned an equilibrium dissociation constant (Kd) of 0.121 ± 0.03 µM.
With `CC1=CC(=O)C2=C(C[C@@H]3C(=CC[C@@H]4C(=O)N(c5ccc(N6CCOCC6)cc5)C(=O)[C@@H]43)[C@@H]2c2ccc(O)cc2)C1=O` [Compound 7], the equilibrium dissociation constant (Kd) in series [2] was found to be 20.7 ± 1 µM.
